Data from US5091386A, “7-substituted derivatives of 3,5-dihydroxyhept-6-ynoic acids and corresponding lactones and their use as hypercholeserolemics” (Hoechst Aktiengesellschaft, priority 1988, dated 1992).

Assays:
HMG-CoA reductase = biological target: T1, HMG-CoA reductase (Rattus norvegicus, UniProt P51639); assay: HMG-CoA reductase activity in enzyme preparations (solubilized enzyme from liver microsomes of rats); format: biochemical; settings: (SmR) 14C-HMG-CoA substrate
T1 construct: solubilized enzyme preparations from liver microsomes of rats; from tissue; host or cells: rat liver microsomes (solubilized), rats induced with cholestyramine
T1 sequence (P51639 1-887): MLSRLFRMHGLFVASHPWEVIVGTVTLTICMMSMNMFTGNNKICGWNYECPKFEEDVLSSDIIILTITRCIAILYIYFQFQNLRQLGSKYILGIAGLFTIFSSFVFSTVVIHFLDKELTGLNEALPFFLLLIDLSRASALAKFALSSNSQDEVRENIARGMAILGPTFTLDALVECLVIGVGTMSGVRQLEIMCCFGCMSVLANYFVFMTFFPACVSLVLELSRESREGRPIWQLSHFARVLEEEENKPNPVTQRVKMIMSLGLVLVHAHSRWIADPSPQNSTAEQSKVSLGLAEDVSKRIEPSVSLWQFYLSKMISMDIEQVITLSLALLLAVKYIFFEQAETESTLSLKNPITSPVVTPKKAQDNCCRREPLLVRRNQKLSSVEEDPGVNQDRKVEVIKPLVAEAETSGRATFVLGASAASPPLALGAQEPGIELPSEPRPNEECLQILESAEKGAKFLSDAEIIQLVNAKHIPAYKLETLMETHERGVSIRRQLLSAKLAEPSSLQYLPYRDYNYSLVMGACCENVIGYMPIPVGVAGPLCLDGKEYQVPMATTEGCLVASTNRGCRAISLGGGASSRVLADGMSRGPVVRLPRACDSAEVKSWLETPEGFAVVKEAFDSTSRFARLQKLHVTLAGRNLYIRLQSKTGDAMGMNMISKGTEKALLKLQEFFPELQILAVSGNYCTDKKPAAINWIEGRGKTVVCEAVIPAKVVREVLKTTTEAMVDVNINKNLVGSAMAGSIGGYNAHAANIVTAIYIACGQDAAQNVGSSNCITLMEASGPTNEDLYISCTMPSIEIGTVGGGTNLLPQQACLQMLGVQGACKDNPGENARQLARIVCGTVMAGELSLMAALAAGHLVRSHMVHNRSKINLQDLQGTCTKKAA
Description: The HMG-CoA reductase activity was measured on solubilized enzyme preparations from liver microsomes of rats which had been induced with cholestyramine (®Cuemid) after changing the day/night rhythm. (Sm R) ^14 C-HMG-CoA was used as substrate, and the concentration of NADPH was maintained during the incubation by a regenerating system. ^14 C-mevalonate was separated from the substrate and other products (for example ^14 C-HMG) by column elution, with the elution profile of each individual sample being determined. ^3 H-Mevalonate was not always included because the object was to determine relative data on the inhibitory effect. In each test series the enzyme-free control, the enzyme-containing normal mixture (=100%) and those with added product, final concentration 10^-5 to 10^-9 M, were treated together. Each individual value was formed as the mean of 3 parallel samples. The significance of the differences between means for product-free and product-containing samples was assessed by the t test.
Using the method described above, for example, the following values for the inhibition of HMG-CoA reductase were found for the compounds according to the invention [IC50 /mol/liter denotes the molar concentration of the compound per liter required for a 50% inhibition]. […]

[1] = system: cholesterol biosynthesis in HEP-G2 cells; assay: Inhibition of cholesterol biosynthesis in HEP-G2 cell cultures; format: cell-based; settings: for IC50: Homo sapiens, HepG2, 14C-cholesterol formed from 14C-precursor; for relative activity (IC50 ref./IC50): vs analogous hept-6E-enoic acid derivative
Description: Monolayers of HEP-G2 cells in lipoprotein-free nutrient medium were preincubated with the appropriate concentrations of the test substances for a defined time (for example 1 hour) and, after addition of the labeled precursor, for example sodium ^14 C-acetate, the incubation was continued (for example for 3 hours). After addition of an internal standard (^3 H-cholesterol) a portion of the cells was subjected to alkaline hydrolysis. The lipids from the hydrolyzed cells were extracted with chloroform/methanol. This lipid mixture was, after addition of carrier cholesterol, subjected to preparative thin-layer chromatography, the cholesterol band was visualized with iodine vapor and then isolated, and the amount of ^14 C-cholesterol formed from the ^14 C-precursor was determined by scintigraphy. Cell protein was determined in an aliquot of the cells so that it is possible to calculate the amount of ^14 C-cholesterol formed in unit time per mg of cell protein. The inhibitory effect of the particular test product on cholesterol biosynthesis by HEP-G2 cell cultures emerged by comparison of this figure with the amount of ^14 C-cholesterol formed per mg of cell protein and unit time in a culture treated in the same way but free of test substance.
Testing of substances for inhibition of cholesterol biosynthesis in confluent cell cultures (monolayers) of HEP-G2 cells [drawing 17]
Using the method described above, for example the following figures for the inhibition of cholesterol biosynthesis (in HEP-G2 cells) were found for the compounds according to the invention (the IC50 /mol is that concentration of the compound which brings about 50% inhibition of cholesterol biosynthesis). IC50 values were determined for the compounds according to the invention as well as for identically substituted 3,5-dihydroxyhept6E-enoic acid derivatives (IC50 ref.). The quotient IC50 ref./IC50 yielded the relative activity of the compounds according to the invention. […] This corresponds to a relative activity of 1.6 based on the analogous hept-6E-enoic acid derivative.

IC50 (HMG-CoA reductase)	SMILES	IC50 [1]	relative activity (IC50 ref./IC50) [1]
3 nM	CC(C)c1nc(-c2ccccc2)cc(-c2ccc(F)cc2)c1C#C[C@@H](O)C[C@@H](O)CC(=O)O (relative stereo) [Example 7a, sodium 3RS, 5SR-dihydroxy-7-(4-(4-fluorophenyl)-2-(1-methylethyl)-6-phenylpyridin-3-yl)hept-6-ynoate]		
5.7 nM	CC(C)C(C#C[C@@H](O)C[C@@H](O)CC(=O)O)=C(c1ccc(F)cc1)c1ccc(F)cc1 (relative stereo) [Example 7l]		
	CC(C)c1nc(-c2ccccc2)cc(-c2ccc(F)cc2)c1C#C[C@@H]1C[C@@H](O)CC(=O)O1 (relative stereo) [Example 8a, 6RS-2-(4-(4-Fluorophenyl)-2-(1-methylethyl)-6-phenylpyridin-3-yl)ethynyl-4SR-hydroxy-3,4,5,6-tetrahydro-2H-pyran-2-one]	9 nM	2.67
	CC(C)c1nc(-c2ccc(F)cc2)nc(-c2ccc(F)cc2)c1C#C[C@@H]1C[C@@H](O)CC(=O)O1 (relative stereo) [Example 8e]	11 nM	1.6
